The numbers were not newly measured in patent US20210177743A1, “Self-Assembling Multi-Domain Peptide Based Hydrogels” (New Jersey Institute of Technology, priority 2018, published 2021), which cites them from elsewhere.

The data set has as its system hepatocytes with low LDL receptors due to PCSK9.

In the case of TVFTSWEEYLDWV [Pep2-8], the “LDL receptors on the cell surface” value is “restore the receptors to the cell surface”.
